Reference: patent EP1733731A1, “New uses of Glycerol derivatives in particular in cosmetics” (AGRO INDUSTRIE RECHERCHES ET DEVELOPPEMENTS (A.R.D.), priority 2005, dated 2006)

Legend:
Assay type in all cases: cell-based
proMMP-1 = assay: activation of proMMP-1 by plasmin in cultured dermal fibroblasts (western blot); conditions: 25 µg/mL; 2,5 µg/mL plasmin; Figure 1C-4
Method: • La Figure 1 représente la modulation de l'activation des proMMP-3 (Figures 1A et 1B) et proMMP-1 (Figure 1C) in vitro comme en culture par des extraits glycolipidiques du gluten de blé. • Figure 1A : 100 nM de proMMP-3 (Figure 1A-1) sont incubés avec 65 nM de plasmine en absence (Figure 1A-2) ou en présence de glycolipides (Figure 1A-3 et 4), à la concentration de 50µg/mL pour M1-Sucres (Figure 1A-3) et 25 µg/mL pour ED 23-11 (Figure 1A-4). • Figure 1B : des fibroblastes dermiques sont ensemencés en plaque 24 puits à raison de […] cellules par puits jusque confluence. Après une mise au repos de 18 heures, les cellules sont incubées en présence (Figure 1B-2, 3 et 4) ou non (Figure 1B-1) de 2,5 µg/mL de plasmine ainsi que des glycolipides M1(-Sucres) (Figure 1B-3) et ED 23-11 (Figure 1B-4) aux mêmes concentrations que précédemment. • Figure 1C : des fibroblastes dermiques sont ensemencés en plaque 24 puits à raison de […] cellules par puits jusque confluence. Après une mise au repos de 18 heures, les cellules sont incubées en présence (Figure 1C-2, 3 et 4) ou non (Figure 1C-1) de 2,5 µg/mL de plasmine ainsi que des glycolipides M1(-Sucres) (Figure 1C-3) et ED 23-11 (Figure 1C-4) aux mêmes concentrations que précédemment. Dans l'ensemble des figures 1A, 1B et 1C, la réaction est arrêtée aux temps indiqués par addition de 0,3 mg/ml d'aprotinine. […]

[1] = test system: kératinocytes et fibroblastes dermiques; assay: degradation of a fluorescein-labelled type I collagen layer in a UV-A skin photo-ageing co-culture model; conditions: 10 J.cm^-2 UV-A, 15 µg/mL plasminogen, 48 h, versus control without active, read-out: inhibition de ce "vieillissement cutané" (dégradation du tapis de collagène)
TIMP-1 = TIMP-1 secretion by dermal fibroblasts (reverse zymography)
Excerpt: Les effets de ces composés et fractions ont été étudiés sur la sécrétion de TIMP-1 par des fibroblastes dermiques en culture. L'analyse de la quantité de TIMP-1 produite est effectuée par une technique de zymographie inverse (Biotechniques. 2005 Jan;38(1):73-83. Zymographic techniques for the analysis of matrix metalloproteinases and their inhibitors. Snoek-van Beurden PA, Von den Hoff JW). Les résultats présentés sont exprimés en pourcentage par rapport au témoin sans effecteur.

CCCCC/C=C\C/C=C\CCCCCCCCOC[C@H](CO[C@@H]1O[C@H](COC(=O)CCCCCCCCCCCCCCC)[C@H](O)[C@H](O)[C@H]1O)OCCCCCCCC/C=C\C/C=C\CCCCC [ED23-11, 1,2-di-O-linoléyl-3-O-[6'-O-palmitoyl-β-D-galactopyranosyl]-sn-glycérol]
activation de la proMMP-1 (proMMP-1): inhibition significative
inhibition at 25 µg/mL [1]: 70%
sécrétion de TIMP-1, pourcentage par rapport au témoin sans effecteur (TIMP-1; 5 ng/mL): 102%
sécrétion de TIMP-1, pourcentage par rapport au témoin sans effecteur (TIMP-1; 25 ng/mL): 104%
sécrétion de TIMP-1, pourcentage par rapport au témoin sans effecteur (TIMP-1; 50 ng/mL): 98%
sécrétion de TIMP-1, pourcentage par rapport au témoin sans effecteur (TIMP-1; 100 ng/mL): 101%
sécrétion de TIMP-1, pourcentage par rapport au témoin sans effecteur (TIMP-1; 200 ng/mL): 106%
surexpression du TIMP-1 (TIMP-1; over the tested concentration range, result in words): pas
